How the values were obtained:
[1] = tested on: GLXMAW (Soybean, Williams); assay: Preemergence herbicidal evaluation; assay type: in vivo, Glycine max, (L.) Merr. cv Williams; details: preemergence, rated 4-5 weeks after treatment
[2] = tested on: ZEAMX (Corn, Field); assay: Postemergence herbicidal evaluation; assay type: in vivo, Zea mays, L.
How it was run: (§1)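 Seedlings grown about two weeks in flats, sprayed, then kept under standard greenhouse care. Rated visually 4–5 weeks after treatment on a 0–9 scale (stand, vigour, malformation, size, chlorosis, overall appearance) relative to untreated control; repeat tests averaged.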

[3] = tested on: ORYSAT (Rice, Tebonnet); assay: Preemergence herbicidal evaluation; assay type: in vivo, Oryza sativa, (L.) Tebonnet; details: preemergence, rated 4-5 weeks after treatment
[4] = tested on: ECHORC (Echinochloa oryzoides); assay: Flooded paddy, preemergence weed control; assay type: in vivo, Echinochloa oryzoides (Ard.) Fritsch.; details: rated 3-4 weeks after treatment, 0-9 rating scale
How it was run: (§2)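 Under paddy conditions, seeds or vegetative propagules go into the top 0.5 cm of silt loam; the soil is then flooded to 1.5–3 cm and kept so. Treated pots stay in a greenhouse; response is rated 0-9 visually versus control.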

[5] = tested on: TRZAWR (Wheat, Winter, cv Riband); assay: Preemergence herbicidal evaluation; assay type: in vivo, Triticum aestivum; details: preemergence, rated 4-5 weeks after treatment
How it was run: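 Applied before emergence as an aqueous acetone spray over seeded soil. Read-out: 0–9 visual rating covering plant stand, vigor, size, chlorosis, malformation and overall appearance compared with control, taken 4–5 weeks after spraying.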

[6] = tested on: CASOB (Cassia obtusifolia); assay: Postemergence herbicidal evaluation; assay type: in vivo, L.
How it was run: as §1

[7] = tested on: AMBEL (Ambrosia artemisifolia); assay: Postemergence herbicidal evaluation; assay type: in vivo, L.
How it was run: as §1

[8] = tested on: CHEAL (Chenopodium album); assay: Postemergence herbicidal evaluation; assay type: in vivo, L.
How it was run: as §1

[9] = tested on: SAGPY (Sagittaria pygmaea); assay: Flooded paddy, preemergence weed control; assay type: in vivo, L.; details: rated 3-4 weeks after treatment, 0-9 rating scale
How it was run: as §2

[10] = tested on: CYPIR (Cyperus iria); assay: Flooded paddy, preemergence weed control; assay type: in vivo; details: rated 3-4 weeks after treatment, 0-9 rating scale
How it was run: as §2

[11] = tested on: ORYSAT (Rice, Tebonnet); assay: Postemergence herbicidal evaluation; assay type: in vivo, Oryza sativa, (L.) Tebonnet
How it was run: as §1

[12] = tested on: IPOHE (Ipomoea hederacea); assay: Preemergence herbicidal evaluation; assay type: in vivo, (L.) Jacq.; details: preemergence, rated 4-5 weeks after treatment
[13] = tested on: ECHCG (Echinochloa crus-galli); assay: Postemergence herbicidal evaluation; assay type: in vivo, (L.) Beau
How it was run: as §1

With `CN(C(=O)c1nsc2ccc(-n3c(=O)cc(C(F)(F)F)n(C)c3=O)cc12)c1ccc(Cl)cc1` [Compound 18, 1,2-benzisothiazole-3-carboxanilide, 4′-chloro-5-[3,6-dihydro-3-methyl-2,6-dioxo-4-(trifluoromethyl)-1(2H)-pyrimidinyl]-N-methyl-] the “GLXMAW preemergence herbicidal rating” value ([1]; Rate 0.0620 kg/ha) was 0.0, the “GLXMAW preemergence herbicidal rating” value ([1]; Rate 0.1250 kg/ha) was 4.0 and the “GLXMAW preemergence herbicidal rating” value ([1]; Rate 0.2500 kg/ha) was 5.0. The “Postemergence herbicidal rating, ZEAMX” value ([2]; rate 0.0320 kg/ha) was 5.0, the “Postemergence herbicidal rating, ZEAMX” value ([2]; rate 0.0620 kg/ha) was 5.0 and the “Postemergence herbicidal rating, ZEAMX” value ([2]; rate 0.1250 kg/ha) was 5.5. The “Postemergence herbicidal rating, ZEAMX” value ([2]; rate 0.2500 kg/ha) was 7.0, the “ORYSAT preemergence herbicidal rating” value ([3]; Rate 0.0620 kg/ha) was 0.0 and the “ORYSAT preemergence herbicidal rating” value ([3]; Rate 0.1250 kg/ha) was 5.0. The “ORYSAT preemergence herbicidal rating” value ([3]; Rate 0.2500 kg/ha) was 8.0, the “herbicidal rating, ECHORC” value ([4]; rate 0.0080 kg/ha) was 0.0 and the “herbicidal rating, ECHORC” value ([4]; rate 0.0320 kg/ha) was 6.0. The “herbicidal rating, ECHORC” value ([4]; rate 0.1250 kg/ha) was 9.0, the “TRZAWR preemergence herbicidal rating” value ([5]; Rate 0.0620 kg/ha) was 0.0 and the “TRZAWR preemergence herbicidal rating” value ([5]; Rate 0.1250 kg/ha) was 4.0. For the same molecule, the “TRZAWR preemergence herbicidal rating” value ([5]; Rate 0.2500 kg/ha) was 8.0, the “Postemergence herbicidal rating, CASOB” value ([6]; rate 0.0320 kg/ha) was 0.0 and the “Postemergence herbicidal rating, CASOB” value ([6]; rate 0.0620 kg/ha) was 1.0. The “Postemergence herbicidal rating, CASOB” value ([6]; rate 0.1250 kg/ha) was 2.0, the “Postemergence herbicidal rating, CASOB” value ([6]; rate 0.2500 kg/ha) was 6.0 and the “Postemergence herbicidal rating, AMBEL” value ([7]; rate 0.0320 kg/ha) was 2.0. For the same molecule, the “Postemergence herbicidal rating, AMBEL” value ([7]; rate 0.0620 kg/ha) was 9.0, the “Postemergence herbicidal rating, AMBEL” value ([7]; rate 0.1250 kg/ha) was 9.0 and the “Postemergence herbicidal rating, AMBEL” value ([7]; rate 0.2500 kg/ha) was 9.0. For the same molecule, the “Postemergence herbicidal rating, CHEAL” value ([8]; rate 0.0320 kg/ha) was 7.0, the “Postemergence herbicidal rating, CHEAL” value ([8]; rate 0.0620 kg/ha) was 7.0 and the “Postemergence herbicidal rating, CHEAL” value ([8]; rate 0.1250 kg/ha) was 7.0. The “Postemergence herbicidal rating, CHEAL” value ([8]; rate 0.2500 kg/ha) was 9.0, the “herbicidal rating, SAGPY” value ([9]; rate 0.0080 kg/ha) was 0.0 and the “herbicidal rating, SAGPY” value ([9]; rate 0.0320 kg/ha) was 1.5. For the same molecule, the “herbicidal rating, SAGPY” value ([9]; rate 0.1250 kg/ha) was 5.0, the “herbicidal rating, CYPIR” value ([10]; rate 0.0080 kg/ha) was 0.0 and the “herbicidal rating, CYPIR” value ([10]; rate 0.0320 kg/ha) was 6.5. For the same molecule, the “herbicidal rating, CYPIR” value ([10]; rate 0.1250 kg/ha) was 7.5, the “Postemergence herbicidal rating, ORYSAT” value ([11]; rate 0.0320 kg/ha) was 2.0 and the “Postemergence herbicidal rating, ORYSAT” value ([11]; rate 0.0620 kg/ha) was 3.0. The “Postemergence herbicidal rating, ORYSAT” value ([11]; rate 0.1250 kg/ha) was 5.0, the “Postemergence herbicidal rating, ORYSAT” value ([11]; rate 0.2500 kg/ha) was 5.5 and the “IPOHE preemergence herbicidal rating” value ([12]; Rate 0.0620 kg/ha) was 3.0. For the same molecule, the “IPOHE preemergence herbicidal rating” value ([12]; Rate 0.1250 kg/ha) was 9.0, the “IPOHE preemergence herbicidal rating” value ([12]; Rate 0.2500 kg/ha) was 9.0 and the “Postemergence herbicidal rating, ECHCG” value ([13]; rate 0.0320 kg/ha) was 0.0. For the same molecule, the “Postemergence herbicidal rating, ECHCG” value ([13]; rate 0.0620 kg/ha) was 0.0, the “Postemergence herbicidal rating, ECHCG” value ([13]; rate 0.1250 kg/ha) was 0.0 and the “Postemergence herbicidal rating, ECHCG” value ([13]; rate 0.2500 kg/ha) was 5.0.
With `Cc1cccnc1-c1nsc2ccc(-n3c(=O)cc(C(F)(F)F)n(C)c3=O)cc12` [Compound 19, 1-methyl-3-[3-(3-methyl-2-pyridyl)-1,2-benzisothiazol-5-yl]-6-(trifluoromethyl)uracil] the “GLXMAW preemergence herbicidal rating” value ([1]; Rate 0.0620 kg/ha) was 6.3, the “GLXMAW preemergence herbicidal rating” value ([1]; Rate 0.1250 kg/ha) was 6.7 and the “GLXMAW preemergence herbicidal rating” value ([1]; Rate 0.2500 kg/ha) was 7.7. For the same molecule, the “Postemergence herbicidal rating, ZEAMX” value ([2]; rate 0.0320 kg/ha) was 5.3, the “Postemergence herbicidal rating, ZEAMX” value ([2]; rate 0.0620 kg/ha) was 5.3 and the “ORYSAT preemergence herbicidal rating” value ([3]; Rate 0.0620 kg/ha) was 5.3. For the same molecule, the “ORYSAT preemergence herbicidal rating” value ([3]; Rate 0.1250 kg/ha) was 7.0, the “ORYSAT preemergence herbicidal rating” value ([3]; Rate 0.2500 kg/ha) was 8.0 and the “herbicidal rating, ECHORC” value ([4]; rate 0.0080 kg/ha) was 2.0. The “herbicidal rating, ECHORC” value ([4]; rate 0.0320 kg/ha) was 8.0, the “herbicidal rating, ECHORC” value ([4]; rate 0.1250 kg/ha) was 9.0 and the “TRZAWR preemergence herbicidal rating” value ([5]; Rate 0.0620 kg/ha) was 5.5. The “TRZAWR preemergence herbicidal rating” value ([5]; Rate 0.1250 kg/ha) was 8.0, the “TRZAWR preemergence herbicidal rating” value ([5]; Rate 0.2500 kg/ha) was 8.5 and the “Postemergence herbicidal rating, CASOB” value ([6]; rate 0.0320 kg/ha) was 1.5. For the same molecule, the “Postemergence herbicidal rating, CASOB” value ([6]; rate 0.0620 kg/ha) was 5.0, the “Postemergence herbicidal rating, AMBEL” value ([7]; rate 0.0320 kg/ha) was 9.0 and the “Postemergence herbicidal rating, AMBEL” value ([7]; rate 0.0620 kg/ha) was 9.0. The “Postemergence herbicidal rating, CHEAL” value ([8]; rate 0.0320 kg/ha) was 8.0, the “Postemergence herbicidal rating, CHEAL” value ([8]; rate 0.0620 kg/ha) was 9.0 and the “herbicidal rating, SAGPY” value ([9]; rate 0.0080 kg/ha) was 0.0. For the same molecule, the “herbicidal rating, SAGPY” value ([9]; rate 0.0320 kg/ha) was 2.5, the “herbicidal rating, SAGPY” value ([9]; rate 0.1250 kg/ha) was 7.0 and the “herbicidal rating, CYPIR” value ([10]; rate 0.0080 kg/ha) was 0.0. For the same molecule, the “herbicidal rating, CYPIR” value ([10]; rate 0.0320 kg/ha) was 5.0, the “herbicidal rating, CYPIR” value ([10]; rate 0.1250 kg/ha) was 9.0 and the “Postemergence herbicidal rating, ORYSAT” value ([11]; rate 0.0320 kg/ha) was 3.3. The “Postemergence herbicidal rating, ORYSAT” value ([11]; rate 0.0620 kg/ha) was 3.5, the “IPOHE preemergence herbicidal rating” value ([12]; Rate 0.0620 kg/ha) was 9.0 and the “IPOHE preemergence herbicidal rating” value ([12]; Rate 0.1250 kg/ha) was 8.7. For the same molecule, the “IPOHE preemergence herbicidal rating” value ([12]; Rate 0.2500 kg/ha) was 9.0, the “Postemergence herbicidal rating, ECHCG” value ([13]; rate 0.0320 kg/ha) was 2.0 and the “Postemergence herbicidal rating, ECHCG” value ([13]; rate 0.0620 kg/ha) was 3.0.

Reference: US6706663B2, “Herbicidal 3-heterocyclic substituted benzisothiazole and benzisoxazole compounds” (Wyeth, priority 2000, dated 2004)
